Source: PMC4830356 (ACS chemical neuroscience, 2015)

Key:
[1] = target: T1, human KOR (Homo sapiens, UniProt P41145); assay: [35S]GTPγS coupling; assay type: biochemical
[2] = target: T1, human KOR; assay: βarrestin2 recruitment, high content imaging in U2OS-hKOR-βarr2-GFP cells; assay type: cell-based
[3] = target: T1, human KOR; assay: In-cell western ERK1/2 phosphorylation in CHO-hKOR cells; assay type: cell-based
[4] = tested on: human KOR; assay: Bias analysis by fitting to the operational model; settings: relative to U69,593; for ΔΔLogR(G−ERK): G protein coupling vs ERK1/2 phosphorylation; for ΔΔLogR(G−ERK) / ΔΔLogR(G−βarr2): ± SEM; for ΔΔLogR(G−βarr2): G protein coupling vs βarrestin2 recruitment; for bias factor (10^ΔΔLogR) G/ERK: antilog of ΔΔLogR(G−ERK); for bias factor (10^ΔΔLogR) G/βarr2: antilog of ΔΔLogR(G−βarr2)

T1 sequence (P41145 whole entry): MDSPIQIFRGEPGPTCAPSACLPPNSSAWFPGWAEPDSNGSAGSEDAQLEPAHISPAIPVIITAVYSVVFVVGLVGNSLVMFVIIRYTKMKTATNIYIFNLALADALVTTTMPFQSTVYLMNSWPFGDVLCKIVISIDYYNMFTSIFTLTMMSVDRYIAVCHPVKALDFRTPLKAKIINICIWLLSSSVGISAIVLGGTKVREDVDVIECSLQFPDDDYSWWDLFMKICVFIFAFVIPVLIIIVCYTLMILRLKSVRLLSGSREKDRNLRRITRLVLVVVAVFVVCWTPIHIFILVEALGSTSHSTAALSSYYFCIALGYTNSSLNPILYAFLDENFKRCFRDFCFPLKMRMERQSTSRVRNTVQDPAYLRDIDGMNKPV

Brc1ccc(CSc2nnc(-c3ccccn3)n2Cc2ccco2)cc1 [3.1, 2-(5-((4-Bromobenzyl)thio)-4-(furan-2-ylmethyl)-4H-1,2,4-tri-azol-3-yl)pyridine]
EC50 [1]: 84.7 ± 18.4 nM | G protein assay EMAX, % of max U69,593 [1]: 91 ± 3 % of max U69,593 | EC50 [2]: > 31 µM | βarrestin2 assay % U69,593 at 10 μM [2]: 58 ± 8 % U69,593 | EC50 [3]: 340 ± 25.1 nM | ERK1/2 phosphorylation % U69,593 at 10 μM [3]: 114 ± 4 % U69,593 | ERK1/2 phosphorylation EMAX, % of max U69,593 [3]: 125 ± 2 % of max U69,593 | ΔΔLogR(G−ERK) [4]: 1.7 ± 0.20 | ΔΔLogR(G−βarr2) [4]: 1.2 ± 0.20 | bias factor (10^ΔΔLogR) G/ERK [4]: 47 | bias factor (10^ΔΔLogR) G/βarr2 [4]: 17

Brc1ccc(CSc2nnc(-c3ccccn3)n2Cc2cccnc2)cc1 [3.3, 2-(5-((4-Bromobenzyl)thio)-4-(pyridin-3-ylmethyl)-4H-1,2,4-triazol-3-yl)pyridine]
EC50 [1]: 149 ± 11.5 nM | G protein assay EMAX, % of max U69,593 [1]: 94 ± 4 % of max U69,593 | EC50 [2]: > 31 µM | βarrestin2 assay % U69,593 at 10 μM [2]: 10 ± 7 % U69,593 | EC50 [3]: 227 ± 40.1 nM | ERK1/2 phosphorylation % U69,593 at 10 μM [3]: 112 ± 6 % U69,593 | ERK1/2 phosphorylation EMAX, % of max U69,593 [3]: 117 ± 7 % of max U69,593 | ΔΔLogR(G−ERK) [4]: 1.1 ± 0.19 | ΔΔLogR(G−βarr2) [4]: 1.6 ± 0.22 | bias factor (10^ΔΔLogR) G/ERK [4]: 14 | bias factor (10^ΔΔLogR) G/βarr2 [4]: 37

FC(F)(F)c1ccc(Cl)c(CSc2nnc(-c3ccccn3)n2Cc2cccs2)c1 [1.2, 2-(5-((2-Chloro-5-(trifluoromethyl)benzyl)thio)-4-(thiophen-2-ylmethyl)-4H-1,2,4-triazol-3-yl)pyridine]
EC50 [1]: 27.2 ± 3.5 nM | G protein assay EMAX, % of max U69,593 [1]: 98 ± 1 % of max U69,593 | EC50 [2]: 6.25 ± 1.44 µM | βarrestin2 assay % U69,593 at 10 μM [2]: 94 ± 8 % U69,593 | βarrestin2 assay EMAX, % of max U69,593 [2]: 147 ± 25 % of max U69,593 | EC50 [3]: 594 ± 115 nM | ERK1/2 phosphorylation % U69,593 at 10 μM [3]: 128 ± 6 % U69,593 | ERK1/2 phosphorylation EMAX, % of max U69,593 [3]: 139 ± 9 % of max U69,593 | ΔΔLogR(G−ERK) [4]: 2.6 ± 0.19 | bias factor (10^ΔΔLogR) G/ERK [4]: 419 | bias factor (10^ΔΔLogR) G/βarr2 [4]: 122

FC(F)(F)c1ccc(Cl)c(CSc2nnc(-c3ccccn3)n2Cc2cccnc2)c1 [1.3, 2-(5-((2-Chloro-5-(trifluoromethyl)benzyl)thio)-4-(pyridin-3-ylmethyl)-4H-1,2,4-triazol-3-yl)pyridine]
EC50 [1]: 115 ± 8.9 nM | G protein assay EMAX, % of max U69,593 [1]: 97 ± 1 % of max U69,593 | EC50 [2]: 10.1 ± 3.25 µM | βarrestin2 assay % U69,593 at 10 μM [2]: 38 ± 5 % U69,593 | βarrestin2 assay EMAX, % of max U69,593 [2]: 65 ± 6 % of max U69,593 | EC50 [3]: 108 ± 24.5 nM | ERK1/2 phosphorylation % U69,593 at 10 μM [3]: 107 ± 7 % U69,593 | ERK1/2 phosphorylation EMAX, % of max U69,593 [3]: 114 ± 8 % of max U69,593 | ΔΔLogR(G−ERK) [4]: 1.0 ± 0.19 | ΔΔLogR(G−βarr2) [4]: 1.2 ± 0.20 | bias factor (10^ΔΔLogR) G/ERK [4]: 9 | bias factor (10^ΔΔLogR) G/βarr2 [4]: 15

FC(F)(F)c1ccc(Cl)c(CSc2nnc(-c3ccccn3)n2Cc2ccco2)c1 [1.1, 2-(5-((2-Chloro-5-(trifluoromethyl)benzyl)thio)-4-(furan-2-yl-methyl)-4H-1,2,4-triazol-3-yl)pyridine]
EC50 [1]: 31.8 ± 6.4 nM | G protein assay EMAX, % of max U69,593 [1]: 98 ± 1 % of max U69,593 | EC50 [2]: 8.72 ± 2.18 µM | βarrestin2 assay % U69,593 at 10 μM [2]: 29 ± 5 % U69,593 | βarrestin2 assay EMAX, % of max U69,593 [2]: 56 ± 5 % of max U69,593 | EC50 [3]: 242 ± 46.9 nM | ERK1/2 phosphorylation % U69,593 at 10 μM [3]: 114 ± 7 % U69,593 | ERK1/2 phosphorylation EMAX, % of max U69,593 [3]: 120 ± 10 % of max U69,593 | ΔΔLogR(G−ERK) [4]: 2.0 ± 0.19 | ΔΔLogR(G−βarr2) [4]: 1.7 ± 0.19 | bias factor (10^ΔΔLogR) G/ERK [4]: 93 | bias factor (10^ΔΔLogR) G/βarr2 [4]: 47

Ic1ccc(CSc2nnc(-c3ccccn3)n2Cc2cccs2)cc1 [2.2, 2-(5-((4-Iodobenzyl)thio)-4-(thiophen-2-ylmethyl)-4H-1,2,4-triazol-3-yl)pyridine]
EC50 [1]: 40.3 ± 8.5 nM | G protein assay EMAX, % of max U69,593 [1]: 100 ± 1 % of max U69,593 | EC50 [2]: 3.57 ± 0.68 µM | βarrestin2 assay % U69,593 at 10 μM [2]: 94 ± 9 % U69,593 | βarrestin2 assay EMAX, % of max U69,593 [2]: 123 ± 19 % of max U69,593 | EC50 [3]: 789 ± 159 nM | ERK1/2 phosphorylation % U69,593 at 10 μM [3]: 131 ± 4 % U69,593 | ERK1/2 phosphorylation EMAX, % of max U69,593 [3]: 143 ± 4 % of max U69,593 | ΔΔLogR(G−ERK) [4]: 2.5 ± 0.19 | ΔΔLogR(G−βarr2) [4]: 1.5 ± 0.19 | bias factor (10^ΔΔLogR) G/ERK [4]: 304 | bias factor (10^ΔΔLogR) G/βarr2 [4]: 33

Brc1ccc(CSc2nnc(-c3ccccn3)n2Cc2cccs2)cc1 [3.2, 2-(5-((4-Bromobenzyl)thio)-4-(thiophen-2-ylmethyl)-4H-1,2,4-triazol-3-yl)pyridine]
EC50 [1]: 66.6 ± 15.1 nM | G protein assay EMAX, % of max U69,593 [1]: 98 ± 1 % of max U69,593 | EC50 [2]: 1.94 ± 0.0909 µM | βarrestin2 assay % U69,593 at 10 μM [2]: 87 ± 3 % U69,593 | βarrestin2 assay EMAX, % of max U69,593 [2]: 94 ± 2 % of max U69,593 | EC50 [3]: 672 ± 113 nM | ERK1/2 phosphorylation % U69,593 at 10 μM [3]: 135 ± 8 % U69,593 | ERK1/2 phosphorylation EMAX, % of max U69,593 [3]: 149 ± 13 % of max U69,593 | ΔΔLogR(G−ERK) [4]: 1.7 ± 0.22 | ΔΔLogR(G−βarr2) [4]: 0.9 ± 0.22 | bias factor (10^ΔΔLogR) G/ERK [4]: 46 | bias factor (10^ΔΔLogR) G/βarr2 [4]: 7

Ic1ccc(CSc2nnc(-c3ccccn3)n2Cc2cccnc2)cc1 [2.3, 2-(5-((4-Iodobenzyl)thio)-4-(pyridin-3-ylmethyl)-4H-1,2,4-tri-azol-3-yl)pyridine]
G protein assay EMAX, % of max U69,593 [1]: 98 ± 3 % of max U69,593 | βarrestin2 assay % U69,593 at 10 μM [2]: 46 ± 3 % U69,593 | βarrestin2 assay EMAX, % of max U69,593 [2]: 101 ± 7 % of max U69,593 | ERK1/2 phosphorylation % U69,593 at 10 μM [3]: 110 ± 8 % U69,593 | ERK1/2 phosphorylation EMAX, % of max U69,593 [3]: 109 ± 6 % of max U69,593 | ΔΔLogR(G−ERK) [4]: 1.2 ± 0.22 | ΔΔLogR(G−βarr2) [4]: 1.4 ± 0.22 | bias factor (10^ΔΔLogR) G/ERK [4]: 16 | bias factor (10^ΔΔLogR) G/βarr2 [4]: 25

Ic1ccc(CSc2nnc(-c3ccccn3)n2Cc2ccco2)cc1 [2.1, 2-(5-((4-Iodobenzyl)thio)-4-(furan-2-ylmethyl)-4H-1,2,4-triazol-3-yl)pyridine]
EC50 [1]: 30.3 ± 4.5 nM | G protein assay EMAX, % of max U69,593 [1]: 95 ± 1 % of max U69,593 | EC50 [2]: 13.5 ± 8.29 µM | βarrestin2 assay % U69,593 at 10 μM [2]: 105 ± 2 % U69,593 | βarrestin2 assay EMAX, % of max U69,593 [2]: 228 ± 96 % of max U69,593 | EC50 [3]: 222 ± 22.9 nM | ERK1/2 phosphorylation % U69,593 at 10 μM [3]: 113 ± 8 % U69,593 | ERK1/2 phosphorylation EMAX, % of max U69,593 [3]: 131 ± 10 % of max U69,593 | ΔΔLogR(G−ERK) [4]: 1.9 ± 0.19 | ΔΔLogR(G−βarr2) [4]: 1.7 ± 0.19 | bias factor (10^ΔΔLogR) G/ERK [4]: 88 | bias factor (10^ΔΔLogR) G/βarr2 [4]: 49
